Data: article PMC9088311, “Cyclic Thiosulfonates for Thiol-Mediated Uptake: Cascade Exchangers, Transporters, Inhibitors” (JACS Au, 2022)
In brackets after ≈: the same amount, converted by molar mass. Several values for one entry are separate records, joined by “and”; a condition that tells them apart may be missing. Equal entries are not always repeated. Where two headings read alike, the source gives them in different places.

How the values were obtained:
HK cells, transporter 28 = assay: HCHT imaging: inhibition of cytosolic delivery of CTO transporter 28; format: cell-based, Human; details: inhibitor 1 h; for IC15: read-out: MIC (concentration needed to reach 15% inhibition), transporter 28 5 μM
Protocol: (§1) Uptake inhibition was measured by the automated HCHT imaging used already to elaborate on cytosolic delivery. For inhibitor screening, HK cells in multiwell plates were incubated with increasing concentrations of inhibitors, followed by fluorescent transporters 28, 31, and 32 at a constant concentration. […] If inhibitors are removed before the addition of transporters 28, 31, and 32, the method is referred to as “pre-incubation”. This is of interest to minimize exchange between the transporter and the inhibitor but is often problematic because dynamic covalent exchange between the inhibitor and cellular target can also be reversed and thus lost. The complementary “co-incubation” operates without inhibitor removal before the addition of transporters 28, 31, and 32.
(§2) 536/40 nm emission filter, and red with 531/40 nm excitation filter and 593/40 nm emission […]
(§3) 4.3. HCHT Inhibitor Screening
(§4) Pre-Incubation Method. As in ref. S1. HeLa Kyoto cells were seeded at 8 ×10^4 cells/mL in FluoroBrite DMEM + 10% FBS on μ-Plate 96-well Black ibiTreat sterile and incubated at 37 °C with 5% CO 2 for 24 h. Then, the medium was removed and cells were washed with PBS ([…]), fresh FluoroBrite DMEM medium (4 × 150 μL/well) was added into the cells using a plate washer (Biotek EL406®), keeping a final volume of 135 μL/well. Different concentrations of the inhibitors were prepared by serial dilution with 10% final concentration DMSO (10× in PBS). The solution of compounds 4 and 33 was prepared final DMSO concentration of 10% in each dilution (10× in PBS). These inhibitor solutions (10× final concentration), transporter 28 (10× in DMEM), transporters 31 and 32 (10× in PBS) a solution of HOE (100 μg/mL) and PI (10 μg/mL) in PBS were prepared freshly in a 96-well V-bottom plate before adding to the cells. The inhibitor solutions from the V-bottom plate were added to the cells (15 μL/well) in a final volume of 150 μL/well using an electronic multichannel pipette and cells were incubated for 1 h at 37 °C with 5% CO 2. After this incubation, cells were washed again with PBS and DMEM using the plate washer (in the way mentioned above), and transporter 28 , 31 or 32 from the V-bottom plate was added (15 μL/well) to the cells in a final volume of 150 μL/well. A final concentration of each transporter 28 , 31 and 32 was 5 μM, 10 μM and 0.5 μM, respectively, except for the control wells, where only PBS was added (15 μL/well). Cells treated with transporter 28 or 31 were incubated for 30 min, and cells treated with 32 were incubated for 2 h at 37 °C with 5% CO 2. After that, the cells were washed with PBS and DMEM using the plate washer, and the solution of Hoechst 33342 and PI from the V-bottom plate was added (15 μL/well) to the cells in a final volume of 150 μL/well. After 15 min of incubation at 37 °C with 5% CO 2, the cells were washed and kept in clean FluoroBrite
(§5) DMEM. For live cell imaging, samples were kept at 37 °C with 5% CO 2 during the microscope imaging. The distribution of fluorescence stained cells was analyzed without fixing using an […]

HeLa Kyoto cells = assay: Relative viability (HOE/PI) in HCHT screening
Protocol: One advantage of HCHT imaging of cellular uptake compared to flow cytometry[38],[42],[43] is that it simultaneously gives information on toxicity and intracellular localization. […] Information on the intracellular localization of reporters can be quantified through segmentation of cellular compartments stained with specific markers.[52]
as §1
Relative cell viability ( RV) for each condition in the presence of inhibitors was calculated […]
of the relative cell viability ( RVrel) to the concentration of inhibitors ( cinhibitor ) was plotted and fitted with Equation (S19) to retrieve the concentration causing 50% cell growth inhibition (RV50) value and the Hill coefficient ( n).

in vitro = details: human
HK cells, transporter 32 = system: HK cells, transporter 32; parameters: method as in PMID 34173696; key to inhibition of OPS 32 uptake (heatmap): –: −: inactive; ++: qualitative inhibition of SC2 uptake; details: cited from earlier work
HK cells, transporter 31 = assay: HCHT imaging: inhibition of cytosolic delivery of ETP transporter 31; format: cell-based, Human; details: inhibitor 1 h; for IC50 / IC15: Homo sapiens; for IC50: read-out: IC50 (concentration needed to reach 50% inhibition), transporter 31 10 μM; for IC15: read-out: MIC (concentration needed to reach 15% inhibition), transporter 31 10 μM; for MIC (concentration needed to reach 15% inhibition): transporter 31 10 μM
Protocol: as §1, §2, §3, §4, §5

trypsin = assay: Trypsin inhibition (preliminary, not shown); format: biochemical; details: 10 μM; preliminary results, not shown
cathepsin L = cathepsin L (Homo sapiens, UniProt P07711); assay: Cathepsin L inhibition (preliminary, not shown); format: biochemical; details: 10 μM; preliminary results
Sequence of cathepsin L (P07711 114-333, species assumed): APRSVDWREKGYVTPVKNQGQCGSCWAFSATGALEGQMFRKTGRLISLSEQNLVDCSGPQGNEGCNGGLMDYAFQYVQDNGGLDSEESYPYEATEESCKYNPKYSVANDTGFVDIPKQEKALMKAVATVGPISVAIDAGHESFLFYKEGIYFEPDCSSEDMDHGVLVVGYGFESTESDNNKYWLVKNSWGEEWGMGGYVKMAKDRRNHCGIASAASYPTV

cathepsin B = cathepsin B (Homo sapiens, UniProt P07858); assay: Cathepsin B inhibition (preliminary, not shown); format: biochemical; details: 10 μM; preliminary results
[1] = Dynamic covalent ring opening with thiol 10, 1H NMR kinetics; format: physicochemical; details: pD 2.7
Protocol: The dynamic covalent opening of CTO 3 with thiols yields product 9 with a disulfide and a sulfinate (Figure 3B). Consistent with short chalcogen bonds found in silico, the opening of CTO 3 was instantaneous on an NMR timescale with most thiols. To decelerate ring opening, bulky thiols were considered in combination with lowered pH to deactivate the nucleophile. With N-Ac-D-penicillamine 10, the opening of 5 mM CTO 3 in phosphate buffer/DMSO-d6 9:1 was still immediate at pD 6.7 but became detectable in ^1H NMR spectroscopy kinetics under more acidic conditions. The ring-opening rate constants k^O were estimated by fitting the initial velocities to second-order kinetics. Only lower bound rates were approximated from the earliest determined substrate conversions when reactions were still too fast despite the unfavorable conditions. At pD 5.4, dynamic covalent ring opening of CTO 3 with equimolar tertiary thiol 10 occurred with k^O > 0.49 M^–1 s^–1 and equilibrated at K = 6.0 × 10^3 M^–1 (Table 1, entry 1, Figures S4 and S5). At pD 2.7, further deceleration to k^O = 0.10 M^–1 s^–1 shifted the equilibrium to K = 500 M^–1 (Table 1, entry 2, Figures S6 and S7). […] At equilibrium, the concentration of thiol 10 further decreased slowly due to oxidation into the homodimer (Figure 3C, diamonds).
Equilibrium constants for reactions with two reactants A and B and a product C are […]
3.1.1. Dynamic Covalent Ring Opening with Thiols
General procedure A (at 5 mM): To a solution of deuterated sodium phosphate (200 mM in D 2O, pD 2.7 or 5.4, 180 mM final concentration), a stock solution of substrate (0.10 M in DMSO-d6, 5.0 mM final concentration) was added and stirred. Then a stock solution of 10 (0.10 M in DMSO- d6, 5.0 mM final concentration) was added and vigorously stirred at room temperature. The solution was transferred immediately to an NMR tube and NMR data were recorded repeatedly. The concentration of the substrate or thiol at each time plot was calculated by comparing the integrals of the peaks indicated with arrows in the figures, and plotted. The data points were fitted to obtain k1 with the Equation (S6) or (S7) using Graphpad Prism.
General procedure B (at 2 mM): To a solution of deuterated sodium phosphate (200 mM in D 2O, pD 2.7 or 5.4, 180 mM final concentration), DMSO- d6 (10% DMSO- d6 in the reaction mixture) and a stock solution of substrate (0.10 M in DMSO- d6, 2.0 mM final concentration) were added and stirred. Then a stock solution of 10 (0.10 M in DMSO- d6, 2.0 mM final concentration) was added and vigorously stirred at room temperature. The solution was transferred immediately to an NMR tube and NMR data were recorded repeatedly. The concentration of the substrate or thiol at each time plot was calculated by comparing the integrals of the peaks indicated with arrows in the figures, and plotted. The data points were fitted to obtain k1 with the Equation (S6) or (S7) using Graphpad Prism.
General procedure C (for thiosulfinates): To a solution of deuterated sodium phosphate (200 mM in D 2O, pD 5.4, 170 mM final concentration), a stock solution of substrate (0.10 M in DMSO- d6, 5.0 mM final concentration) was added and stirred. Then a stock solution of 10 (0.10 M in DMSO- d6, 10 mM final concentration) was added and vigorously stirred at room […]
data points were fitted to obtain k1 with the Equation (S14) or (S16) using Graphpad Prism. […]
3.1.2. Dependence of Ring Opening on Proticity
A mixture of deuterated phosphoric acid and NaOD (30% in D 2O), which gave pD 2.7 in D2O, was used as buffer in all solvent mixtures. To a solution of deuterated sodium phosphate (20 mM final concentration) in a mixture of D 2O and DMSO- d6 (540 μL, final D 2O content: […]
concentration) was added and stirred. Then a stock solution of 10 (0.10 M in DMSO- d6, 5.0 mM final concentration) was added and vigorously stirred at room temperature. The solution was transferred immediately to an NMR tube and 1H NMR data were recorded repeatedly. […]

[2] = Homo sapiens, 1 h, pre-incubation (P)
[3] = Homo sapiens, read-out: IC50 (concentration needed to reach 50% inhibition), transporter 28 5 μM, pre-incubation (P)
[4] = transporter 28 5 μM, pre-incubation (P)
[5] = Homo sapiens, 1 h, read-out: IC50 (concentration needed to reach 50% inhibition), transporter 28 5 μM, co-incubation (C)
[6] = Homo sapiens, 1 h, co-incubation (C)
[7] = transporter 28 5 μM, co-incubation (C)
[8] = with transporter 28, co-incubation (C)

Compound | IC15 (HK cells, transporter 28; [2]) | IC50 (HK cells, transporter 28; [3]) | MIC (concentration needed to reach 15% inhibition) (HK cells, transporter 28; [4]) | viability at 7 h, 10 µM (in vitro) | IC50 (HK cells, transporter 31; 1 h, co-incubation (C)) | IC15 (HK cells, transporter 31; 1 h, co-incubation (C)) | IC50 (HK cells, transporter 28; [5]) | IC15 (HK cells, transporter 28; [6]) | MIC (concentration needed to reach 15% inhibition) (HK cells, transporter 28; [7]) | RV50 (concentration needed to lower relative viability by 50%) (HeLa Kyoto cells; [8]) | viability at 7 h, 5 µM (in vitro) | also measured
CC(C)(C)[Si](C)(C)O[C@H]1CS(=O)(=O)SC[C@H]1OC(=O)NCCNC(=O)CC(O)(CC(=O)NCCNC(=O)O[C@H]1CSS(=O)(=O)C[C@H]1O[Si](C)(C)C(C)(C)C)C(=O)NCCNC(=O)O[C@@H]1CSS(=O)(=O)C[C@@H]1O[Si](C)(C)C(C)(C)C (some centres unmarked) [Compound 42] | 1.8 µM | 5.1 ± 0.4 µM | 2 µM (≈ 2.58 µg/mL) | 107% |  |  |  |  |  |  |  | IC50 (HK cells, transporter 28; read-out: IC50 (concentration needed to reach 50% inhibition), transporter 28 5 μM, pre-incubation (P)): 5 µM; RV50 (concentration needed to lower relative viability by 50%) (HeLa Kyoto cells; with transporter 28, pre-incubation (P)): 22 ± 3 µM and 22 µM
O=C(O)Cn1[se]c2ccccc2c1=O [Compound 45, reference compound] | 1.2 µM | 8 µM | 1 µM (≈ 0.256 µg/mL) |  | 8 µM | 2.2 µM |  |  |  |  |  | inhibition of OPS 32 uptake (heatmap) (HK cells, transporter 32; pre-incubation conditions): –; IC50 (HK cells, transporter 32; read-out: IC50 (concentration needed to reach 50% inhibition), transporter 32 0.5 or 1 μM, pre-incubation (P)): > 100 µM; MIC (concentration needed to reach 15% inhibition) (HK cells, transporter 32; transporter 32 0.5 or 1 μM, pre-incubation (P)): >100 µM; IC15 (HK cells, transporter 31; 1 h, pre-incubation (P)): < 1 µM; IC50 (HK cells, transporter 31; pre-incubation (P)): 10 µM; MIC (concentration needed to reach 15% inhibition) (HK cells, transporter 31; co-incubation (C)): 2 µM; MIC (concentration needed to reach 15% inhibition) (HK cells, transporter 31; pre-incubation (P)): <1 µM; viability at 7 h, 50 µM (in vitro): 81%
O=C(NCCCCCCNC(=O)O[C@H]1CSS(=O)(=O)C[C@H]1O)O[C@H]1CSS(=O)(=O)C[C@H]1O [Compound 41] |  |  |  |  |  |  | 8 µM | 1 µM | 1 µM | >50 µM | 100% | 
CC(C)(C)[Si](C)(C)OC1CS(=O)(=O)SCC1OC(=O)NCCCCCCNC(=O)OC1CSS(=O)(=O)CC1O[Si](C)(C)C(C)(C)C (centres unmarked) [Compound 4] |  |  |  | 103% |  |  | 16 ± 7 µM | 0.3 µM |  | >5 µM |  | inhibition of trypsin (trypsin): > 80%; inhibition of cathepsin L (in words) (cathepsin L): neither cathepsin L nor B; inhibition of cathepsin B (in words) (cathepsin B): neither cathepsin L nor B; IC50 (HK cells, transporter 28; read-out: IC50 (concentration needed to reach 50% inhibition), transporter 28 5 μM, co-incubation (C)): ~15 µM
O=C(NCCCCCCNC(=O)O[C@H]1CSS(=O)(=O)C[C@H]1OCc1ccccc1)O[C@H]1CSS(=O)(=O)C[C@H]1OCc1ccccc1 [Compound 33] |  |  |  | 107% |  |  | > 5 µM | 1.3 µM | 1 µM | >5 µM |  | 
CC1(C)O[C@H]2CSS(=O)(=O)C[C@H]2O1 [Compound 13] |  |  |  |  | > 10 µM | > 10 µM |  |  |  |  | 125 ± 5% | k^O, rate constant of ring opening (or equivalent for acyclic controls) ([1]; equimolar 10, rt, 90% D2O, Na+ phosphate 180 mM, substrate 2 mM): 2.3 M^–1 s^–1; krel^O, rate constant of ring opening relative to 3 ([1]; 90% D2O, 2 mM): 23; ring-opening rate relative to acyclic control 14 (fold) ([1]; with thiol 10, 2 mM): about 4 ×; RV50 (concentration needed to lower relative viability by 50%) (HeLa Kyoto cells; with transporter 31, co-incubation (C)): 29 ± 6 µM
